Measurements: patent EP1618784A1, “AQUEOUS AGRICULTURAL-CHEMICAL SUSPENSION COMPOSITION” (KUMIAI CHEMICAL INDUSTRY CO., LTD., priority 2003, dated 2004)
Structures can show the parent of a compound that is named as a salt. Where two headings read alike, the source gives them in different places.

What was measured:
[1] = cited from earlier work
[2] = Solubility of the agrochemically active ingredient in the aqueous solution of water-soluble compound (B); format: physicochemical
Procedure: While the method for measuring the solubility of the agrochemically active ingredient as the component (A) in the aqueous solution of the water-soluble compound as the component (B) is not particularly limitative, the method contains, for example, adding an excess amount of the agrochemically active ingredient in an aqueous solution in which given quantities of the water-soluble compound are dissolved in water, filtering the solution with a membrane filter after stirring at room temperature for several hours, and analyzing the concentration in the filtrate according to an analysis method of the respective agrochemically active ingredients to calculate the solubility. The concentrations of the water-soluble compounds for allowing the solubility of the respective agrochemically active ingredients to be smaller than 2 g/100 ml are determined in the invention by preparing aqueous solutions with different concentrations of variety of the component (B) such as an inorganic acid, the specified organic acid and alkali metal salt and ammonium salt thereof and by measuring the solubility of the agrochemically active ingredient in each aqueous solution.

SMILES: Cc1cc(Cl)ccc1OCC(=O)[O-].[Na+] [MCPA-sodium, sodium (4-chloro-2-methylphenoxy)acetate]
- solubility in water ([1]; water): 27 g/100 ml

SMILES: COc1cc(OC)nc(Sc2cccc(Cl)c2C(=O)[O-])n1.[Na+] [pyrithiobac-sodium, sodium 2-chloro-6-(4,6-dimethoxypyrimidin-2-ylthio)benzoate]
- solubility in water ([1]; 20 °C, at pH 5): 26.4 g/100 ml

SMILES: COc1cc(OC)nc(Oc2cccc(Oc3nc(OC)cc(OC)n3)c2C(=O)[O-])n1.[Na+] [bispyribac-sodium, sodium 2,6-bis(4,6-dimethoxypyrimidin-2-yloxy)benzoate]
- solubility ([2]; aqueous ammonium hydrogencarbonate, 3.1 parts ammonium hydrogencarbonate in 75.4 parts water (Example 4)): 9000 µg/mL
- solubility ([2]; aqueous sodium chloride, 3.1 parts sodium chloride in 75.4 parts water (Example 3)): 6000 µg/mL
- solubility ([2]; aqueous sodium hydrogencarbonate/sodium carbonate, 1.4 parts sodium hydrogencarbonate and 0.16 part sodium carbonate in 76.94 parts water (Comparative Example 2)): 30000 µg/mL
- solubility ([2]; aqueous sodium hydrogencarbonate/sodium carbonate, 1.6 parts sodium hydrogencarbonate and 0.18 part sodium carbonate in 46.77 parts water (Example 1)): 14000 µg/mL
- solubility ([2]; aqueous sodium hydrogencarbonate/sodium carbonate, 3.9 parts sodium hydrogencarbonate and 0.44 part sodium carbonate in 74.16 parts water (Example 2)): 4000 µg/mL
- solubility in water ([1]; 20 °C, pure water): 7.3 g/100 ml

SMILES: CN/C(=N/CC1CCOC1)N[N+](=O)[O-] (racemic) [dinotefuran, (EZ)-(RS)-1-methyl-2-nitro-3-(tetrahydro-3-furylmethyl)guanidine]
- solubility in water ([1]; 20 °C, pure water): 5.43 g/100 ml

SMILES: Oc1cccc2cccnc12 [8-hydroxyquinoline sulfate, bis(8-hydroxyquinolinium)sulfate]
- solubility in water ([1]; 20 °C, pure water): 30 g/100 ml

SMILES: COC(=O)NS(=O)(=O)c1ccc(N)cc1.[Ca] [asulam-calcium, calcium methyl sulfanilylcarbamate]
- solubility in water ([1]; 20 °C, pure water): 20 g/100 ml

SMILES: CCc1c(C(=O)[O-])c(=O)cnn1-c1ccc(Cl)cc1.[K+] [clofencet-potassium, potassium 2-(4-chlorophenyl)-3-ethyl-2,5-dihydro-5-oxopyridazine-4-carboxylate]
- solubility in water ([1]; 20 °C, pure water): at least 65.5 g/100 ml

SMILES: COC(=O)c1ccc(C(F)(F)F)nc1S(=O)(=O)NC(=O)Nc1nc(OC)cc(OC)n1.[Na] [flupyrsulfuron-methyl-sodium, methyl 2-(4,6-dimethoxypyrimidine-2-ylcarbamoylsulfamoyl)-6-trifluoromethylnicotinate monosodium salt]
- solubility in water ([1]; 20 °C, pure water): 6.3 g/100 ml

SMILES: COc1nn(C(=O)NS(=O)(=O)c2ccccc2OC(F)(F)F)c(=O)n1C [flucarbazone-sodium, 4,5-dihydro-3-methoxy-4-methyl-5-oxo-N-[(2-(trifluoromethoxy)phenylsulfonyl]-1 H-1,2,4-triazole-1-carboxyamidesodium salt]
- solubility ([2]; aqueous acetic acid/sodium acetate, 0.23 part acetic acid and 2.8 parts sodium acetate in 73.77 parts water (Example 5)): 11000 µg/mL
- solubility in water ([1]; 20 °C, pure water): 4.4 g/100 ml
